Results on 25 compounds are retold here after article PMC6844378, “Structure activity relationship studies on Amb639752: toward the identification of a common pharmacophoric structure for DGKα inhibitors” (Journal of Enzyme Inhibition and Medicinal Chemistry, 2019).

pIC50: −log10 of the molar value.

One data set addresses DGKα (Homo sapiens, UniProt P23743). Nature of the data set: DGK assay on OST-DGKα enriched MDCK homogenates. In kind it is biochemical. Further details: expressed in transfected cells; host or cells: MDCK cells (vector-infected, doxycycline-induced), crude homogenate. Conditions: for remaining activity at 100 µM: percentage of residual DGKα activity compared to DMSO control, OST-DGKα overexpressing cell lysates, saturating DAG and ATP, read-out: Residue activity at 100 µM; for pIC50: residual OST-DGKα activity at 0.1, 1.0, 10.0 and 100.0 µM. Here is the method:
Madin-Darby canine kidney (MDCK) cells stably expressing One Strep Tag DGKα (OST-DGKα) were prepared by infecting MDCK cells with a vector expressing an inducible OST tagged DGKα constructs. MDCK cells infected with empty vector were used as controls. MDCK cells were cultured in MEM (minimal essential medium) with 5% FBS (foetal bovine serum) and 1% antibiotic–antimycotic solution. Routinely, cells were splitted every 3–4 days with trypsin–EDTA 0.25% in standard 100 mm dishes.
Large cultures of MDCK cells for enzyme preparation were done by plating 5 × 10^6 cells in 245 mm^2 dishes. Once they reached nearly 70% confluence, cells were treated with doxycycline (1 µg/mL, two days). […] Cells were collected with a rubber scraper, homogenised by passing them through a 29 G-needle syringe 20 times and stored in aliquots at –80 °C. Presence of OST-DGKα was confirmed by western blotting and enzyme assay, transduced DGKα has an activity >100 folds the endogenous DGK.
Essentionally, the same procedure was followed as reported previously in Velnati et al.[9] In brief, DGK activity was assayed by measuring initial velocities (5 min at 27 °C) in presence of saturating substrate concentrations. Reaction conditions: 0.9 µg/µL 1,2-dioleoyl-sn-glycerol, 5 mM ATP, 0.01 µCi/µL [γ^32P]-ATP, 1 mM sodium orthovanadate, 10 mM MgCl2, 1.2 mM EGTA in 7.5 mM Hepes pH 8[12]. Reaction mixture is assembled mixing enzyme (24.5 µL of homogenate), 100× inhibitor or DMSO (0.5 µL), 5× ATP solution (10 µL of 25 mM ATP, 0.05 µCi/µL [γ^32P]-ATP (Perkin-Elmer, Milan, Italy), 5 mM sodium orthovanadate, 50 mM MgCl2), and 3.3× DAG solution (15 µL of 3 µg/µL 1,2-dioleoyl-sn-glycerol resuspended by sonication in 4 mM EGTA in 25 mM Hepes pH 8). The reaction was stopped after 5 min by adding 200 µL of freshly prepared 1 M HCl and lipid was extracted by adding 200 µL of CH3OH:CHCl3 1:1 solution and vortexing for 1 min. The two phases were separated by centrifugation (12,000 RCF for 2 min). Twenty-five microlitres of the lower organic phase was spotted in small drops on silica TLC plates. TLC was run 10 cm and dried before radioactive signals were detected by GS-250 molecular imager and was quantified by quantity one (Bio-Rad, Hercules, CA) software assuring the absence of saturated spots.
Percentage residual activity was calculated as follows: (OST-DGKα homogenate with inhibitor – vector homogenate)/(OST-DGKα homogenate with DMSO – vector homogenate)×100.
Data for the screen on OST-DGKα homogenates are the mean of duplicates. The compounds showing inhibitory activity in this assay were tested >4 times and the mean ± SEM is reported.
To calculate IC50 values of active inhibitors, the inhibitor activity was measured at least three times at 0.1, 1.0, 10.0, and 100.0 µM concentration. Data were analysed using [inhibitor] vs. normalised response parameters with least square [ordinary] curve fitting method in GraphPad PRISM 8.0 software (GraphPad Software, La Jolla, CA) mentioning 95% confidence interval and IC50 values always greater than 0.0. […] In all the experiments, the data were normalised with the controls.
Each inhibitor was tested in duplicate at least once, and DGKα activity was expressed as percentage of residual DGKα activity compared to DMSO control in the same assay. Assay uses OST-DGKα overexpressing cell lysates in presence of saturating exogenous DAG and ATP. We considered R59022 (commercially available) and the lead compound Amb63975230 as our reference molecules.
To measure the inhibitor potency, we determined the IC50 values for the compounds that resulted active when tested at 100 µM by measuring the residual OST-DGKα activity over a dose range of inhibitor concentrations (0.1 µM, 1.0 µM, 10.0 µM, and 100.0 µM).

Chain of DGKα (P23743 whole entry): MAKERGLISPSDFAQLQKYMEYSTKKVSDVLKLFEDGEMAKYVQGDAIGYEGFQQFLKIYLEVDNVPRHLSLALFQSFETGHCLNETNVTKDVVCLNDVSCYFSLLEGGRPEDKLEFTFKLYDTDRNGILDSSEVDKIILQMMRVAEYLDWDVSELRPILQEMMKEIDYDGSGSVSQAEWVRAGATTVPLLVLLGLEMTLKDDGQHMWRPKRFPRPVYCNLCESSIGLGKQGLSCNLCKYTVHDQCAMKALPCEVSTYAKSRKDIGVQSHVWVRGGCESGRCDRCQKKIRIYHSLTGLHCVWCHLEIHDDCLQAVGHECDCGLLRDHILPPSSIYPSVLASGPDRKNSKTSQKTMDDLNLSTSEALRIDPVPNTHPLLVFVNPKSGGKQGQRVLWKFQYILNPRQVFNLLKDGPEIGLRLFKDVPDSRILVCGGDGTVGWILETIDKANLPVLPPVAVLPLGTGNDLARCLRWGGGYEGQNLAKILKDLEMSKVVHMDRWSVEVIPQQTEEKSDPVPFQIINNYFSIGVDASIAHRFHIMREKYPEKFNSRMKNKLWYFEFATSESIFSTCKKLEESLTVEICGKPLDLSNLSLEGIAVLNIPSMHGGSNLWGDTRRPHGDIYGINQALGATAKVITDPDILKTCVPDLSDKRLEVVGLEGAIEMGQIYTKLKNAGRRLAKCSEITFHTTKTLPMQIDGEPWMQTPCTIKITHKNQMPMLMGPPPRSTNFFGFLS

On to `Cn1c(-c2ccccc2)c(C(=O)CN2CCN(C(=O)c3ccco3)CC2)c2ccccc21` [Amb18718], for which the remaining activity at 100 µM on DGKα was 135%.
On to `Cc1[nH]c2ccccc2c1C(=O)C(C)N1CCN(C(=O)c2ccccc2)CC1` (centres unmarked) [Amb37496], for which the remaining activity at 100 µM at DGKα turned out to be 114%.
On the same count and under the same terms, the figure for `O=C(c1c[nH]c2ccccc12)C(c1ccccc1)N1CCN(C(=O)c2ccco2)CC1` (centres unmarked) [Amb94966] is 196%.
With `O=C(CN1CCN(C(=O)c2ccco2)CC1)c1c(-c2ccccc2)[nH]c2ccccc12` [Amb98433], the remaining activity at 100 µM at DGKα stood at 81%.
Take `CC(C(=O)c1c[nH]c2ccccc12)N1CCN(C(=O)c2ccco2)CC1` (centres unmarked) [Amb626577]: the remaining activity at 100 µM at DGKα stood at 127%.
For `COc1ccc2[nH]cc(C(=O)CN3CCN(C(=O)c4ccco4)CC3)c2c1` [Amb629700], the remaining activity at 100 µM on DGKα stood at 101%.
Consider `COc1ccc2[nH]c(C)c(C(=O)CN3CCN(C(=O)c4ccco4)CC3)c2c1` [Amb687392], for which, on DGKα, the remaining activity at 100 µM worked out at 115%.
In the case of `COc1ccc2c(C(=O)CN3CCN(C(=O)c4ccco4)CC3)c(C)n(C)c2c1` [Amb726054], the remaining activity at 100 µM on DGKα came out at 126%.
As for `Cc1c(C(=O)CN2CCN(C(=O)c3ccco3)CC2)c2ccccc2n1C` [Amb731111], the remaining activity at 100 µM on DGKα was 130%.
On the same count and under the same terms, the figure for `Cc1ccc2[nH]cc(C(=O)CN3CCN(C(=O)c4ccco4)CC3)c2c1` [Amb758592] is 150%; for `Cc1ccc2c(C(=O)C(C)N3CCN(C(=O)c4ccco4)CC3)c(C)[nH]c2c1` (centres unmarked) [Amb758897] it is 67%; for `Cc1[nH]c2ccccc2c1C(=O)C(c1ccccc1)N1CCN(C(=O)c2ccco2)CC1` (centres unmarked) [Amb1926062] it is 88%.
`Cc1[nH]c2c(C)ccc(C)c2c1C(=O)CN1CCN(C(=O)c2ccco2)CC1` [Amb22018852]: on DGKα, the remaining activity at 100 µM was 160%.
Turning to `O=c1c2ccccc2[nH]c(=S)n1CCC1CCC(=C(c2ccc(F)cc2)c2ccc(F)cc2)CC1` (centres unmarked) [Compound 1], the “inhibitory activity on the enzyme (DGKα)” value at DGKα was “totally devoid of inhibitory activity”.
Take `O=C(CN1CCN(C(=O)c2ccco2)CC1)c1c[nH]c2ccccc12` [Compound 2]: the remaining activity at 100 µM at DGKα amounted to 135%.
As usually defined, the melting point is the temperature, or range, at which the solid turns liquid. Broadly, the pIC50 is the IC50 on a negative log10 scale, so that one unit is a factor of ten. As for `Cc1ccc2c(C(=O)CN3CCN(C(=O)c4ccccc4)CC3)c(C)[nH]c2c1` [Compound 8, 2-(4-Benzoylpiperazin-1-yl)-1-(2,6-dimethyl-1H-indol-3-yl)ethan-1-one], the melting point is 213.8 to 214.3 °C. At DGKα, the remaining activity at 100 µM worked out at 5% and the pIC50 was 5.49.
In the same order, the values of `COc1ccc(C(=O)N2CCN(CC(=O)c3c(C)[nH]c4cc(C)ccc34)CC2)cc1` [Compound 12, 1-(2,6-Dimethyl-1H-indol-3-yl)-2-(4-(4-methoxybenzoyl)piperazin-1-yl)ethan-1-one] are 219.9 to 220.8 °C, 6% and 5.44.
Compound `Cc1ccc2c(C(=O)CN3CCN(C(=O)c4ccc(C#N)cc4)CC3)c(C)[nH]c2c1` [Compound 13, 4-(4-(2-(2,6-Dimethyl-1H-indol-3-yl)-2-oxoethyl)piperazine-1-carbonyl)benzonitrile] came in with a melting point of 243.9 to 244.8 °C. Also, on DGKα, the remaining activity at 100 µM is 14% and the pIC50 was 5.16.
The compound `Cc1ccc2c(C(=O)CN3CCN(C(=O)c4cccnc4)CC3)c(C)[nH]c2c1` [Compound 15, 1-(2,6-Dimethyl-1H-indol-3-yl)-2-(4-nicotinoylpiperazin-1-yl)ethan-1-one] came in with a melting point of 216.2 to 216.8 °C. Besides, the remaining activity at 100 µM on DGKα came out at 89%.
The compound `Cc1ccc2c(C(=O)CN3CCN(C(=O)c4ccccc4C)CC3)c(C)[nH]c2c1` [Compound 16, 1-(2,6-Dimethyl-1H-indol-3-yl)-2-(4-(2-methylbenzoyl)piperazin-1-yl)ethan-1-one] gave a melting point of 200.5 to 201.6 °C. Also, on DGKα, the remaining activity at 100 µM amounted to 27% and the pIC50 was 4.48.
The compound `COc1cccc(C(=O)N2CCN(CC(=O)c3c(C)[nH]c4cc(C)ccc34)CC2)c1` [Compound 17, 1-(2,6-Dimethyl-1H-indol-3-yl)-2-(4-(3-methoxybenzoyl)piperazin-1-yl)ethan-1-one] returned a melting point of 209.8 to 210.4 °C. For the same compound, on DGKα, the remaining activity at 100 µM came to 41%.
Consider `Cc1ccc2c(C(=O)CN3CCN(C(=O)c4ccc(F)c(F)c4)CC3)c(C)[nH]c2c1` [Compound 18, 2-(4-(3,4-Difluorobenzoyl)piperazin-1-yl)-1-(2,6-dimethyl-1H-indol-3-yl)ethan-1-one], for which the melting point is 233.8 to 235 °C. Also, the remaining activity at 100 µM on DGKα turned out to be 47%.
Regarding `Cc1ccc2c(C(=O)CN3CCN(C(=O)c4cccc(Cl)c4)CC3)c(C)[nH]c2c1` [Compound 19, 2-(4-(3-Chlorobenzoyl)piperazin-1-yl)-1-(2,6-dimethyl-1H-indol-3-yl)ethan-1-one], the melting point lay within 222.3 to 223.5 °C. On DGKα, the remaining activity at 100 µM was 26% and the pIC50 is 4.30.
As to `Cc1ccc2c(C(=O)CN3CCN(C(=O)C4CCCC4)CC3)c(C)[nH]c2c1` [Compound 21, 2-(4-(Cyclopentanecarbonyl)piperazin-1-yl)-1-(2,6-dimethyl-1H-indol-3-yl)ethan-1-one], the remaining activity at 100 µM at DGKα was 39%.
On the same count and under the same terms, with `CCCCCCC(=O)N1CCN(CC(=O)c2c(C)[nH]c3cc(C)ccc23)CC1` [Compound 22, 1-(4-(2-(2,6-Dimethyl-1H-indol-3-yl)-2-oxoethyl)piperazin-1-yl)heptan-1-one] the figure was 48%.
